Source: patent US20230248665A1, “COMPOSITION COMPRISING DIMETHYLCHALCONE DERIVATIVE FOR PREVENTION OR TREATMENT OF METABOLIC DISEASE” (SEOUL NATIONAL UNIVERSITY R & DB FOUNDATION, priority 2020, published 2023)

Columns and labels:
Type in all cases: cell-based
[1] = tested on: vascular endothelial cells (HUVECs) and THP-1 (human monocyte) immune cells; assay: Binding of THP-1 immune cells to TNFα-treated vascular endothelial cells (HUVECs); settings: 10 µM with 10 ng/mL TNFα, 24 hours, then THP-1 for 1 hour; FIG. 5
Description: In the early stages of progression of vascular diseases such as arteriosclerosis, adhesion materials are expressed in vascular endothelial cells due to various environmental factors, thereby increasing the binding of immune cells. Therefore, in order to check whether the DMC derivatives of Example 1 affect the binding between vascular endothelial cells and immune cells, vascular endothelial cells (HUVECs) were treated with 10 ng/mL TNFα and 10 µM DMC derivative and cultured for 24 hours. Then, THP-1 (human monocyte) immune cells labeled with a fluorescent protein were added to the culture solution, and the cells were additionally cultured for 1 hour. After the culture was completed, unbound immune cells were removed using a phosphate buffer solution, and then the degree of binding of immune cells to vascular endothelial cells was determined by measuring the intensity of fluorescence.

[2] = tested on: rat aortic smooth muscle cells; assay: PDGF-induced migration of vascular smooth muscle cells; settings: 1 µM with 10 ng/mL PDGF; FIG. 4
Description: Proliferation and migration of vascular smooth muscle cells are known to be essential steps in the progression of vascular diseases such as restenosis and arteriosclerosis. Therefore, in order to confirm the effect of the DMC derivatives of Example 1 on the migration of rat aortic smooth muscle cells, smooth muscle cells were treated with 10 ng/mL platelet-derived growth factor (PDGF) and 1 µM DMC derivative and cultured. Then, the degree of cell migration was measured.

[3] = tested on: human kidney proximal tubule epithelial cell (HK-2) cell line; assay: Antioxidant effect, intracellular reactive oxygen species (DCF-DA) in HK-2 kidney cells after H2O2; settings: 1 µM for 18 hours, then 500 µM H2O2 for 6 hours, FIG. 6
Description: First, the antioxidant effect was checked using kidney cells. More specifically, a human kidney proximal tubule epithelial cell (HK-2) cell line was treated with 1 µM DMC derivative and cultured for 18 hours. Then, 500 µM H2O2 was added to the culture medium and the culture medium was incubated for 6 hours. Thereafter, the amount of intracellular reactive oxygen species (iROS) was measured using dichlorohydro-fluorescein diacetate (DCF-DA).

AMPK = AMPK activity, western blotting of phosphorylated AMPK in C2C12 myotubes; settings: 10 µM, 24 hours, FIG. 2
From the text: AMP-activated protein kinase (AMPK) is a member of serine/threonine kinases, and is an enzyme known as an energy sensor which senses the intracellular energy state. Moreover, the activation of AMPK is known to show the effect of increasing glucose transport and promoting fatty acid oxidation in skeletal muscle, and to […] the synthesis of cholesterol and triglycerides, decrease lipogenesis, and increase fatty acid oxidation, and ketogenesis, and the like in the liver. Further, the activation of AMPK is known to reduce adipogenesis in adipose tissue and increase insulin secretion in pancreatic beta cells, thereby being able to be applied to the treatment of various metabolic diseases. Therefore, western blotting was performed in order to confirm the effect of the DMC derivatives of Example 1 on AMPK activity. More specifically, the C2C12 myoblasts were primarily cultured in DMEM supplemented with 10% fetal bovine serum, and then cultured in DMEM supplemented with 2% horse serum for 5 days to differentiate into myotubes. Then, the differentiated myotubes were treated with 10 µM DMC derivative and cultured for 24 hours, and then cells were collected, and disrupted using an ultrasonic disperser to obtain proteins. Next, western blotting was performed using a pAMPK antibody (Cell Signaling Technology) and an AMPK antibody (Cell Signaling Technology) to measure the amount of phosphorylated AMPK. 1 mM AICAR was used as a positive control, and 20 µg of protein was used for each sample in western blotting.

Compound | binding of immune cells to vascular endothelial cells (fluorescence) [1] | migration of vascular smooth muscle cells [2] | amount of intracellular reactive oxygen species (ROS) [3] | activity of AMPK (phosphorylated AMPK) (AMPK)
COCOc1c(C)c(O)c(C(=O)/C=C/c2ccccc2)c(OC)c1C [Chemical Formula 25, 1-(2′-hydroxy-4′-(methoxymethoxy)-6′-methoxy-3′,5′-dimethylphenyl)-3-phenyl-2-propen-1-one] | similarly or more effectively suppressed the binding of immune cells than Rosi | similarly or more effectively suppressed cell migration by PDGF than AICAR and Rosi, which were used as positive controls, and DMC | effectively reduced ROS | increased the activity of AMPK similarly to or more effectively than the positive controls
COc1c(C)c(OC)c(C(=O)/C=C/c2ccc(N(C)C)cc2)c(OC)c1C [Chemical Formula 23, 1-(3′,5′-dimethyl-2′,4′,6′-trimethoxyphenyl)-3-(4-(N,N-dimethylamino)phenyl)-2-propen-1-one] | similarly or more effectively suppressed the binding of immune cells than Rosi | similarly or more effectively suppressed cell migration by PDGF than AICAR and Rosi, which were used as positive controls, and DMC | effectively reduced ROS | increased the activity of AMPK similarly to or more effectively than the positive controls
COc1c(C)c(O)c(C)c(O)c1C(=O)/C=C/c1ccc(C)cc1 [Chemical Formula 3, 1-(2′,4′-dihydroxy-6′-methoxy-3′,5′-dimethylphenyl)-3-(4-tolyl)-2-propen-1-one] | similarly or more effectively suppressed the binding of immune cells than Rosi | similarly or more effectively suppressed cell migration by PDGF than AICAR and Rosi, which were used as positive controls, and DMC | effectively reduced ROS | increased the activity of AMPK similarly to or more effectively than the positive controls
COCOc1c(C)c(O)c(C(=O)/C=C/c2ccc(SC)cc2)c(OC)c1C [Chemical Formula 13, 1-(2′-hydroxy-4′-(methoxymethoxy)-6′-methoxy-3′,5′-dimethyphenyl)-3-(4-methylthiophenyl)-2-propen-1-one] | similarly or more effectively suppressed the binding of immune cells than Rosi | similarly or more effectively suppressed cell migration by PDGF than AICAR and Rosi, which were used as positive controls, and DMC | effectively reduced ROS | 
COc1c(C)c(O)c(C)c(O)c1C(=O)/C=C/c1ccc(F)cc1 [Chemical Formula 2, 1-(2′,4′-dihydroxy-6′-methoxy-3′,5′-dimethylphenyl)-3-(4-fluorophenyl)-2-propen-l-one] | similarly or more effectively suppressed the binding of immune cells than Rosi | similarly or more effectively suppressed cell migration by PDGF than AICAR and Rosi, which were used as positive controls, and DMC | effectively reduced ROS | 
CCOc1ccc(/C=C/C(=O)c2c(O)c(C)c(O)c(C)c2OC)cc1F [Chemical Formula 33, 1-(2′,4′-dihydroxy-6′-methoxy-3′,5′-dimethylphenyl)-3-(4-ethoxy-3-fluorophenyl)-2-propen-1-one] | similarly or more effectively suppressed the binding of immune cells than Rosi | similarly or more effectively suppressed cell migration by PDGF than AICAR and Rosi, which were used as positive controls, and DMC | effectively reduced ROS | 
COc1c(C)c(O)c(C)c(O)c1C(=O)/C=C/c1ccc(F)c(F)c1 [Chemical Formula 6, 1-(2′,4′-dihydroxy-6′-methoxy-3′,5′-dimethylphenyl)-3-(3,4-difluorophenyl)-2-propen-1-one] | similarly or more effectively suppressed the binding of immune cells than Rosi |  | effectively reduced ROS | increased the activity of AMPK similarly to or more effectively than the positive controls
COCOc1c(C)c(O)c(C(=O)/C=C/c2ccc(F)cc2)c(OC)c1C [Chemical Formula 24, 1-(2′-hydroxy-4′-(methoxymethoxy)-6′-methoxy-3′,5′-dimethylphenyl)-3-(4-fluorophenyl)-2-propen-1-one] | similarly or more effectively suppressed the binding of immune cells than Rosi | similarly or more effectively suppressed cell migration by PDGF than AICAR and Rosi, which were used as positive controls, and DMC | effectively reduced ROS | increased the activity of AMPK similarly to or more effectively than the positive controls
COCOc1c(C)c(O)c(C(=O)/C=C/c2ccc(F)c(F)c2)c(OC)c1C [Chemical Formula 11, 1-(2′-hydroxy-4′-(methoxymethoxy)-6′-methoxy-3′,5′-dimethylphenyl)-3-(3,4-difluorophenyl)-2-propen-1-one] | similarly or more effectively suppressed the binding of immune cells than Rosi |  | effectively reduced ROS | increased the activity of AMPK similarly to or more effectively than the positive controls
COCOc1c(C)c(O)c(C(=O)/C=C/c2ccc(Cl)cc2)c(OC)c1C [Chemical Formula 12, 1-(2′-hydroxy-4′-(methoxymethoxy)-6′-methoxy-3′,5′-dimethyphenyl)-3-(4-chlorophenyl)-2-propen-1-one] | similarly or more effectively suppressed the binding of immune cells than Rosi |  | effectively reduced ROS | increased the activity of AMPK similarly to or more effectively than the positive controls
COCOc1c(C)c(O)c(C(=O)/C=C/c2cc(OC)ccc2OC)c(OC)c1C [Chemical Formula 15, 1-(2′-hydroxy-4′-(methoxymethoxy)-6′-methoxy-3′,5′-dimethylphenyl)-3-(2,5-dimethoxyphenyl)-2-propen-1-one] | similarly or more effectively suppressed the binding of immune cells than Rosi | similarly or more effectively suppressed cell migration by PDGF than AICAR and Rosi, which were used as positive controls, and DMC | effectively reduced ROS | increased the activity of AMPK similarly to or more effectively than the positive controls
